Assay results from patent US6579894B2, “Prolines as antimicrobial agents” (Merck & Co., Inc., priority 1999, dated 2003).
Values after ≈ are worked out from the molar mass of the structure shown.

Tests used:
E. faecalis = experiment: Whole cell antimicrobial screen, MIC (Efs); assay type: cell-based; conditions: 2-fold dilutions, overnight incubation; for MIC: Enterococcus faecalis, read-out: MIC (μg/mL) Efs
Experimental: (§1) Compounds were tested for antimicrobial activity against a panel of organisms according to standard procedures described by the National Committee for Clinical Laboratory Standards (NCCLS document M7-A3, Vol. 13, No. 25, 1993/NCCLS document M27-P, Vol. 12, No. 25, 1992). Compounds were dissolved in 100% DMSO and were diluted to the final reaction concentration (0.1 μg/ml-500 μg/ml) in microbial growth media. In all cases the final concentration of DMSO incubated with cells is less than or equal to 1%. For minimum inhibitory concentration (MIC) calculations, 2-fold dilutions of compounds were added to wells of a microtiter plate containing 1×10^5 bacteria or fungal cells in a final volume of 200 lambda of an appropriate media (Mueller-Hinton Broth; Haemophilus Test Media; Mueller-Hinton Broth+5% Sheep Blood; or […]). Plates were incubated overnight at an appropriate temperature (30° C.-37° C.) and optical densities (measure of cell growth) were measured using a commercial plate reader. The MIC value is defined as the lowest compound concentration inhibiting growth of the test organism.

[1] = system: aminoacyl-tRNA synthetases (aaRS); experiment: aaRS charging and trichloroacetic acid precipitation assay, IC50 (S. aureus); assay type: biochemical; conditions: aaRS of S. aureus; values are range classes
Experimental: (§2) IC50 determinations for the aminoacyl-tRNA synthetases (aaRS) isolated from pathogen or HeLa cells were carried out using a modification of the aaRS charging and trichloroacetic acid precipitation assay described previously (see examples: D. Kern et. al., Biochemie, 61, 1257-1272 (1979) and J. Gilbart et. al. Antimicrobial Agents and Chemotherapy, 37(1), 32-38 (1993)). The aaRS enzymes were prepared via standard cloning and expression methods and partially purified or partially purified from pathogen and HeLa cell extracts. The activity of each aaRS enzyme was standardized as trichloroacetic acid precipitable counts (cpm) obtained at 10 minutes reaction time at Km concentrations of substrates. For practical purposes, the minimal acceptable value is approximately 2000 cpm per 10 minute reaction.
(§3) Preincubations for IC50 determinations were initiated by incubating partially purified aaRS extracts in 50 mM HEPES (pH 7.5), 0.1 mM EDTA, 0.05 mg/ml bovine serum albumin, 10 mM dithiothreitol and 2.5% dimethyl sulfoxide with and without test compound (e.g. compound of the invention (preferably a compound of Formula I)) in a final volume of 20 microliters in a microtiter plate for 20 minutes at 25 C. Test compounds were typically present as serial dilutions in concentration ranges of 0.35 nM to 35 μM. Test compound solutions were prepared by dissolving test compound in 100% dimethyl sulfoxide and diluting to the final concentration with 50 mM HEPES, pH 7.5. IC50 determinations were typically performed in duplicate with each experiment containing 4-8 concentrations of inhibitor along with two no inhibitor controls.
(§4) IC50 incubations were initiated by supplementing the preincubation mixture to a final assay concentration of 10 mM MgCl2, 30 mM KCl, 10 mM KF, 50 mM HEPES (pH 7.5), 20 μM-500 mM ATP, 2-20 μM [^3H] amino acid, and 90-180 μM crude tRNA in a final volume of 35 microliters. The reaction was incubated at 25° C. for 5-20 minutes. At specified time points a 15 microliter aliquot was removed and added to a well of a Millipore filtration plate (Multiscreen-FB, MAFB NOB 10) containing 100 microliters of cold 5% (wt/vol) trichloroacetic acid. Trichloroacetic acid precipitable material was collected by filtration on Millipore Multiscreen filtration station, washed twice with cold 5% trichloroacetic acid, twice with water, and dried. Plates were typically allowed to air dry for several hours or they were baked at 50° C. in a vacuum oven for 30 minutes. The radioactivity on the dried plates was quantitated by the addition of Packard Microscint-20 to the wells and counting with a Packard TopCount scintillation counter.
(§5) Inhibitor activity was typically reported as a percentage of the control aaRS activity. The IC50 value was determined by plotting percent activity versus compound concentration in the assay and identifying the concentration at which 50% of the activity was remaining.

E. faecium = experiment: Whole cell antimicrobial screen, MIC (E. faecium); assay type: cell-based; conditions: 2-fold dilutions, overnight incubation; for MIC: Enterococcus faecium, read-out: MIC (μg/mL) Efm
Experimental: as §1

S. aureus = experiment: Whole cell antimicrobial screen, MIC (S. aureus); assay type: cell-based; conditions: 2-fold dilutions, overnight incubation; for MIC: Staphylococcus aureus, read-out: MIC (μg/mL) Sa
Experimental: as §1

[2] = system: aminoacyl-tRNA synthetases (aaRS); experiment: aaRS charging and trichloroacetic acid precipitation assay, IC50 (E. faecalis); assay type: biochemical; conditions: aaRS of E. faecalis; values are range classes
Experimental: as §2, §3, §4, §5

Row | MIC (E. faecalis) [µg/mL] | IC50 [1] [nM] | MIC (E. faecium) [µg/mL] | MIC (S. aureus) [µg/mL] | IC50 [2] [nM] | MIC (μg/mL) Efs (E. faecalis) [µg/mL] | MIC (μg/mL) Efm (E. faecium) [µg/mL] | MIC (μg/mL) Sa (S. aureus) [µg/mL] | Compound
1 | > 100 | 1000 to 10000 | > 100 | > 100 | 1000 to 10000 |  |  |  | O=C(NCc1nc2ccccc2[nH]1)C1CC(=NO)CN1Cc1ccc(Cl)cc1Cl (stereo not shown) [130,707]
2 |  | 1000 to 10000 |  |  | 1000 to 10000 | >100 | 100 (≈ 256 µM) | 100 (≈ 256 µM) | Clc1ccc(CN2CCC[C@H]2COCc2nc3ccccc3[nH]2)c(Cl)c1 [130,928]
3 |  | < 500 |  |  | 501 to 1000 | <100 | <100 | <100 | O=C(NCc1nc2ccccc2[nH]1)[C@@H]1C[C@@H](O)CN1Cc1ccc(Cl)cc1Cl [130,901]
4 | > 100 | 1000 to 10000 | > 100 | > 100 | 1000 to 10000 |  |  |  | O=C(NCc1nc2ccccc2[nH]1)C1CC(OCc2ccccc2)CN1Cc1ccc(Cl)cc1Cl (stereo not shown) [127,889]
5 | > 100 | 1000 to 10000 | > 100 | > 100 | 1000 to 10000 |  |  |  | CON=C1CC(C(=O)NCc2nc3ccccc3[nH]2)N(Cc2ccc(Cl)cc2Cl)C1 (stereo not shown) [130,708]
6 |  | < 500 |  |  | < 500 | <100 | 100 (≈ 238 µM) | 100 (≈ 238 µM) | O=C(NCc1nc2ccccc2[nH]1)[C@@H]1C[C@H](O)CN1Cc1ccc(Cl)cc1Cl [130,900]
7 | > 100 | 1000 to 10000 | > 100 | > 100 | 1000 to 10000 |  |  |  | O=C(O)CON=C1CC(C(=O)NCc2nc3ccccc3[nH]2)N(Cc2ccc(Cl)cc2Cl)C1 (stereo not shown) [130,709]
8 | < 100 | < 500 | < 100 | < 100 | 1000 to 10000 |  |  |  | O=C(NCc1nc2ccccc2[nH]1)[C@@H]1CC(O)CN1Cc1ccc(Cl)cc1Cl (stereo partly shown) [127,006]
9 |  | 1000 to 10000 |  |  | 1000 to 10000 | >100 | >100 | <100 | O=C(NCc1nc2ccccc2[nH]1)[C@H]1CCCN1Cc1ccc(Cl)cc1Cl [130,724]
10 | < 100 | < 500 |  | 100 (≈ 248 µM) | 1000 to 10000 |  |  |  | O=C(NCc1nc2ccccc2[nH]1)[C@@H]1CCCN1Cc1ccc(Cl)cc1Cl [126,881]
11 |  | 10000 to 60000 |  |  | 10000 to 60000 | >100 | >100 | >100 | O=C(NCc1nc2ccccc2[nH]1)C1CC(O)CN1Cc1ccc(Cl)cc1Cl (stereo not shown) [130,725]
12 |  | < 500 |  |  | < 500 | >100 | >100 | >100 | O=C(NCc1nc2ccccc2[nH]1)C1CC(c2nn[nH]n2)CN1Cc1ccc(Cl)cc1Cl (mixture of isomers) [130,706]
13 | > 100 | 1000 to 10000 | > 100 | > 100 | 1000 to 10000 |  |  |  | O=C1C[C@@H](C(=O)NCc2nc3ccccc3[nH]2)N(Cc2ccc(Cl)cc2Cl)C1 [130,692]
14 | > 100 | 1000 to 10000 | > 100 | > 100 | 1000 to 10000 |  |  |  | N#CC1CC(C(=O)NCc2nc3ccccc3[nH]2)N(Cc2ccc(Cl)cc2Cl)C1 (stereo not shown) [127,566]
15 | > 100 | < 500 | > 100 | > 100 | < 500 |  |  |  | O=C(O)CC1CC(C(=O)NCc2nc3ccccc3[nH]2)N(Cc2ccc(Cl)cc2Cl)C1 (stereo not shown) [130,973]
16 |  | 1000 to 10000 |  |  | 1000 to 10000 | >100 | 100 (≈ 240 µM) | <100 | O=C(NCc1nc2ccccc2[nH]1)[C@@H]1CCCCN1Cc1ccc(Cl)cc1Cl [130,693]
